Assay results as given in patent US8710233B2 (Gruenenthal GmbH, priority 2005, dated 2014).
Read-outs that look alike come from different tables or passages of the source.

Legend:
[1] = biological target: T1, vanilloid receptor 1 (VR1/TRPV1) of the rat species (Rattus norvegicus, UniProt O35433); assay: FLIPR Ca2+ influx assay on rat dorsal root ganglia cells (pharmacological method I); format: cell-based; details: table 4, capsaicin
T1 construct: The spinal column is removed from decapitated rats; from tissue; host or cells: primary cells dissociated from rat dorsal root ganglia
In short: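 Primary rat dorsal root ganglion cells loaded with 2 μM Fluo-4, Ca2+ influx read on FLIPR as peak fluorescence. Triplicates, at least 3 independent experiments.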

[2] = test system: cold allodynia after chronic constriction injury; assay: Neuropathic pain in mice, Bennet model (chronic constriction injury, cold allodynia); format: in vivo; details: mouse
Excerpt: VI. Neuropathic Pain in Mice
The efficacy of compounds of general formula I in the treatment of neuropathic pain is investigated by using the Bennet modell (chronic constriction injury; Bennett and Xie, 1988, Pain 33: 87-107.
NMRI mice (weight 16 to 18 g) under ketavet-rompun anaesthesia are supplied with three loose ligatures of the right nervus ischiaticus. The animals develop an oversensitivity to cold at the position of the pad that is innervated by the injured nerve which—after a recovery period of one week—is quantified over a period of three weeks by using a metal plate that is cooled to 4° C. (cold allodynia). The animals are observed for a period of 2 minutes on this plate and the number of brisk withdrawal reactions of the injured nerve is counted. […] The group size is n=10, the stastical significance of efficacy against allodynia (*=p<0.05) is determined by analysis of variance with repeated measurements and post hoc analysis with Bonferroni adjustment.

[3] = test system: formaldehyde induced nociceptive behaviour; assay: Formaldehyde test in mice, second (late) phase; format: in vivo, mouse; details: mouse, read-out: inhibition formaldehyde test (n = 10)

T1 sequence (O35433 whole entry): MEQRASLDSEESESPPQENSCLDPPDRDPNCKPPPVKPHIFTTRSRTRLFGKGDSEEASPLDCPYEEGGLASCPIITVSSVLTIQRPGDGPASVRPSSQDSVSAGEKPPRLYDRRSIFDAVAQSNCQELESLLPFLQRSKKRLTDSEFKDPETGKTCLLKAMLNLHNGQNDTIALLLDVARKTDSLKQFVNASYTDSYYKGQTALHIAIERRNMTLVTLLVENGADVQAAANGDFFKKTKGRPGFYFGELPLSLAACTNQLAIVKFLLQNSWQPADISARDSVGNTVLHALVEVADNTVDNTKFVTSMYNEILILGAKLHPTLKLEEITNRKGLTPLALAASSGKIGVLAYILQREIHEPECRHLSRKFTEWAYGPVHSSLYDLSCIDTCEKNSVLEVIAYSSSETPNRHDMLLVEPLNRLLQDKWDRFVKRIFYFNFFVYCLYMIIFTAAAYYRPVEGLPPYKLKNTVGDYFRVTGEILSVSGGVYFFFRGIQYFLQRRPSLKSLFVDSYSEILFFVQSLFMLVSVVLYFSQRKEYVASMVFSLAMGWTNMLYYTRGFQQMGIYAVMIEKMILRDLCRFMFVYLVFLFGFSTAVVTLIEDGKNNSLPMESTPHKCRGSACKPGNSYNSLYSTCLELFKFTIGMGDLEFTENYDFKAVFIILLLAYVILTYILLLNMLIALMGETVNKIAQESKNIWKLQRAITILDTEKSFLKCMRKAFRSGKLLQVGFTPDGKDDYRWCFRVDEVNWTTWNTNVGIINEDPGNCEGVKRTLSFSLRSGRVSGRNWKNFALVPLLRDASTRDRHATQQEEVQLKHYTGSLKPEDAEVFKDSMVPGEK

Structure (SMILES) | Ki ([1]; read-out: Ki (rat) Cap.) [nM] | inhibition Bennet model (n = 10) ([2]; 0.01 mg/kg body weight po) | Ki ([1]; Ki (rat) Cap.) [nM] | inhibition in vivo at 0.3 mg/kg ([3]; 0.3 mg/kg body weight po) [%] | inhibition in vivo at 0.03 mg/kg ([3]; 0.03 mg/kg body weight po) [%] | inhibition Bennet model (n = 10) ([2]; 0.001 mg/kg body weight po) [po 26%]
Cc1ccc(Cl)cc1Nc1nc(C(F)(F)F)ccc1CNC(=O)C(C)c1ccc(NS(C)(=O)=O)c(F)c1 (centres unmarked) [Example 136, N-[2-(5-chloro-2-methyl-phenylamino)-6-trifluoromethyl-pyridin-3-ylmethyl]-2-(3-fluoro-4-methylsulfonamido-phenyl)-propionamide] | 8.3 | 0.01 po 13% |  |  |  | 
CC(C(=O)NCc1ccc(C(F)(F)F)nc1OCCC(C)(C)C)c1ccc(NS(C)(=O)=O)c(F)c1 (centres unmarked) [Example 125] |  | 0.01 po 17% | 1 | 24 |  | 
CC(C(=O)NCc1ccc(C(C)(C)C)nc1OC1CCCC1)c1ccc(NS(C)(=O)=O)c(F)c1 (centres unmarked) [Example 234, N-(6-tert-butyl-2-cyclopentyloxy-pyridin-3-ylmethyl)-2-(3-fluoro-4-methylsulfonamido-phenyl)-propionamide] | 1 |  |  |  | 5 | 0.001
